Reference: publication PMC9301657 (Journal of biochemical and molecular toxicology, 2010)
Structures can show the parent of a compound that is named as a salt.

Tests used:
[1] = molecular target: T1, r-SgAChE1 (Schizaphis graminum acetylcholinesterase-1) (Schizaphis graminum, UniProt Q9BMJ1); assay: Determination of IC50 for inhibition of purified r-SgAChE1; type: biochemical; conditions: room temperature
[2] = molecular target: T1, r-SgAChE1 (Schizaphis graminum acetylcholinesterase-1); assay: Inhibitory kinetic constants; type: biochemical; conditions: for k2 (unimolecular rate constant) / ki / ki (bimolecular reaction constant, k2/Kd) / ki (bimolecular reaction constant): ATC substrate, room temperature
[3] = molecular target: T1, r-SgAChE1 (Schizaphis graminum acetylcholinesterase-1); assay: Kinetics of substrate hydrolysis; type: biochemical; conditions: for KM of r-SgAChE1 relative to SgAChE purified from the greenbug / Vmax of r-SgAChE1 relative to SgAChE purified from the greenbug: comparison with ref 13; for Km: read-out: KM (Michaelis constant); for Km / Vmax (maximum velocity) / Vmax: room temperature; for Km / Vmax: pH 7.0; for kcat × 10^−3 (turnover rate): values × 10^−3, calculated from molecular mass 64,597 Da and Vmax
[4] = molecular target: T1, r-SgAChE1 (Schizaphis graminum acetylcholinesterase-1); type: biochemical
[5] = system: SgAChE purified from the greenbug; conditions: read-out: KM toward SgAChE; native SgAChE; cited from earlier work
[6] = system: SgAChE purified from the greenbug; conditions: read-out: IC50 against SgAChE; native SgAChE; cited from earlier work

T1 sequence (Q9BMJ1 98-659): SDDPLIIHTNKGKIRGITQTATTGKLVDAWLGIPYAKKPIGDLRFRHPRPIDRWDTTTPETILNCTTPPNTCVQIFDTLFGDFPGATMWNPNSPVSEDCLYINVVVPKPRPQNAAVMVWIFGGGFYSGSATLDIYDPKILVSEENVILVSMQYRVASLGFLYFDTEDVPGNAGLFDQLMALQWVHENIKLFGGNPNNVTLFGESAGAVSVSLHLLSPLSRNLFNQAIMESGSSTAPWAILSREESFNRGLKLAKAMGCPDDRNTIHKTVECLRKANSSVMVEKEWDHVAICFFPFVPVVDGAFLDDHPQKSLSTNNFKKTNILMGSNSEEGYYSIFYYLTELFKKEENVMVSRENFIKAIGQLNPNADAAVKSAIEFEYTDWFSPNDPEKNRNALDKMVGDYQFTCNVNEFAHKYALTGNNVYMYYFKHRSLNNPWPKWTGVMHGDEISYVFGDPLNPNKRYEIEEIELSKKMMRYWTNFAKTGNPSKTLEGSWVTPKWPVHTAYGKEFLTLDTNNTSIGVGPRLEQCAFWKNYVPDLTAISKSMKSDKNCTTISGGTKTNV

| SMILES | k2 (unimolecular rate constant) [2] [min⁻¹] | ki [2] [M⁻¹ s⁻¹] | KM of r-SgAChE1 relative to SgAChE purified from the greenbug [3] [fold] | Vmax of r-SgAChE1 relative to SgAChE purified from the greenbug [3] [fold] | Km [3] [µM] | Vmax (maximum velocity) [3] [U/mg] | Vmax [3] [U/mg Protein] | further results |
| --- | --- | --- | --- | --- | --- | --- | --- | --- |
| CCOC(=O)CC(SP(=O)(OC)OC)C(=O)OCC (stereo not drawn) [Malaoxon, malaoxon] | 1.59 ± 0.02 | 7830 ± 217 | – | – | – | – | – | IC50 ([1]; IC50, 5 min incubation): 61 nM; Kd [2]: 3400 ± 100 nM; k2 (unimolecular rate constant) ([2]; listed as malaoxon): 1.59 min⁻¹ |
| CC(=O)SCC[N+](C)(C)C.[I-] [ATC, Acetylthiocholine iodide] | – | – | 1.53 | 1.7 | 88.3 ± 9.6 | 133.2 ± 1.6 | 133.2 ± 1.6 | kcat × 10^−3 (turnover rate) [3]: 8.60 ± 0.11 min^−1; ATC concentration above which enzymatic activity is inhibited ([4]; substrate inhibition): above 10 mM |
| CC(=O)SC(C)C[N+](C)(C)C.[I-] (stereo not drawn) [AβMTC, acetyl(β-methyl)thiocholine iodide] | – | – | 1.88 | 1.6 | 114 ± 12.5 | 106.4 ± 3.0 | 106.4 ± 3.0 | kcat × 10^−3 (turnover rate) [3]: 6.88 ± 0.20 min^−1 |
| CCOP(=O)(OCC)Oc1ccc([N+](=O)[O-])cc1 [Paraoxon] | 2.76 ± 0.25 | 15100 ± 383 | – | – | – | – | – | ki (bimolecular reaction constant, k2/Kd) [2]: 9.06 ± 0.23 ×10^−5 M^−1 min^−1; k2 (unimolecular rate constant) ([2]; listed as paraoxon): 2.76 min⁻¹ |
| CCN(CC)C(C)CN1c2ccccc2Sc2ccccc21 (stereo not drawn) [Ethopropazine, ethopropazine hydrochloride] | – | – | – | – | – | – | – | IC50 ([1]; IC50, 5 min incubation): 102000 nM |
| CCC(=O)SCC[N+](C)(C)C.[I-] [PTC, propionylthio-choline iodide] | – | – | 2.20 | 2.0 | 68.9 ± 7.8 | 76.7 ± 1.0 | 76.7 ± 1.0 | kcat × 10^−3 (turnover rate) [3]: 4.95 ± 0.07 min^−1; Km [5]: 31.3 ± 3.7 µM |
| CCCC(=O)SCC[N+](C)(C)C.[I-] [BTC, S-butyrylthiocholine iodide] | – | – | 6.02 | 1.9 | 201 ± 21 | 4.4 ± 0.1 | 4.4 ± 0.1 | – |
| C=CC[N+](C)(C)c1ccc(CCC(=O)CCc2ccc([N+](C)(C)CC=C)cc2)cc1 [BW284C51, 1,5-bis(4-allyldimethylammoniumphenyl)-pentan-3-one dibromide] | – | – | – | – | – | – | – | IC50 ([1]; 5 min incubation): 1660 ± 2 nM; IC50 [6]: 140 nM |
| CNC(=O)Oc1ccc2c(c1)[C@]1(C)CCN(C)[C@@H]1N2C.CNC(=O)Oc1ccc2c(c1)[C@]1(C)CCN(C)[C@@H]1N2C.O=S(=O)(O)O [Eserine, eserine hemisulfate] | 1.58 ± 0.04 | 1670 ± 267 | – | – | – | – | – | IC50 ([1]; 5 min incubation): 199 ± 4 nM; IC50 ([1]; 5 min incubation, listed as eserine): 200 nM; ki (bimolecular reaction constant) [2]: 1.00 ± 0.16 × 10^5 M^−1 min^−1; ki (bimolecular reaction constant, k2/Kd) [2]: 1.00 ± 0.16 ×10^−5 M^−1 min^−1; ki (bimolecular reaction constant) ([2]; listed as eserine): (1.00 ± 0.16) × 10^5 M^−1 min^−1; IC50 [6]: 480 nM |
| C[N+](C)(C)CCO [choline, choline chloride] | – | – | – | – | – | – | – | choline concentration above which the enzyme is inhibited [4]: higher than 20 mM |
| CNC(=O)Oc1cccc2ccccc12 [Carbaryl, carbaryl] | 0.99 ± 0.01 | 1080 ± 67 | – | – | – | – | – | IC50 ([1]; IC50, 5 min incubation): 940 ± 5 nM; Kd [2]: 15600 ± 2900 nM |
| CC(=O)O [acetate] | – | – | – | – | – | – | – | influence on hydrolytic activity ([4]; range from 1 μM to 100 mM): not much influenced |
